Experimental data taken from paper PMC4965013, “Open Source Drug Discovery with the Malaria Box Compound Collection for Neglected Diseases and Beyond” (PLoS Pathogens, 2016).

Columns and labels:
[1] = test system: P. falciparum 3D7 trophozoites; experiment: Metabolomic fingerprint profiling LC-MS; type: cell-based, Plasmodium falciparum; design: UDP-D-glucose / ADP-D-glucose: unit not given here; conditions: for Acetyllysine / N-acetyl-L-ornithine / N-carbamoyl-L-aspartate / NADPH / dAMP / dCMP / dTDP / dTMP / dTTP / dihydroorotate / orotate / DLH / DLS/SDL/SID / PD / PEE / PVNF / 3-phosphoglycerate / ADP-D-glucose / ATP / CDP / D-sedoheptulose-1/7-phosphate / FAD / GMP / NAD+ / NADP+ / Octoluse Bisphosphate / Pyroglutamic acid / UDP-D-glucose / UDP-D-glucuronate / UDP-N-acetyl-glucosamine / UDP / UMP / UTP / a-ketoglutarate / citrate/isocitrate / cytidine / dATP / dGMP/AMP / fumarate / glucose-1/6-phosphate / glycerate / guanine / guanosine / hypoxanthine / indole / inosine / nicotinate / ornithine / phosphoenolpyruvate / pyruvate / ribose-phosphate / sarcosine/alanine / sn-glycerol-3-phosphate / succinate/methylmalonic acid / uridine / xanthosine: S2 Table Metabolomics; for Acetyllysine: metabolite Acetyllysine; for N-acetyl-L-ornithine: metabolite N-acetyl-L-ornithine; for N-carbamoyl-L-aspartate: metabolite N-carbamoyl-L-aspartate; for NADPH: metabolite NADPH; for dAMP: metabolite dAMP; for dCMP: metabolite dCMP; for dTDP: metabolite dTDP; for dTMP: metabolite dTMP; for dTTP: metabolite dTTP; for dihydroorotate: metabolite dihydroorotate; for orotate: metabolite orotate; for DLH: peptide DLH; for DLS/SDL/SID: peptide DLS/SDL/SID; for PD: peptide PD; for PEE: peptide PEE; for PVNF: peptide PVNF; for 3-phosphoglycerate: metabolite 3-phosphoglycerate; for ADP-D-glucose: metabolite ADP-D-glucose; for ATP: metabolite ATP; for CDP: metabolite CDP; for CDP / D-sedoheptulose-1/7-phosphate / GMP / Octoluse Bisphosphate / UDP / UMP / UTP / citrate/isocitrate / dGMP/AMP / fumarate / glucose-1/6-phosphate / glycerate / guanine / guanosine / inosine / pyruvate / sarcosine/alanine / succinate/methylmalonic acid / uridine / xanthosine: change in metabolite level after compound treatment; for D-sedoheptulose-1/7-phosphate: metabolite D-sedoheptulose-1/7-phosphate; for FAD: metabolite FAD; for GMP: metabolite GMP; for NAD+: metabolite NAD+; for NADP+: metabolite NADP+; for Octoluse Bisphosphate: metabolite Octoluse Bisphosphate; for Pyroglutamic acid: metabolite Pyroglutamic acid; for UDP-D-glucose: metabolite UDP-D-glucose; for UDP-D-glucuronate: metabolite UDP-D-glucuronate; for UDP-N-acetyl-glucosamine: metabolite UDP-N-acetyl-glucosamine; for UDP: metabolite UDP; for UMP: metabolite UMP; for UTP: metabolite UTP; for a-ketoglutarate: metabolite a-ketoglutarate; for citrate/isocitrate: metabolite citrate/isocitrate; for cytidine: metabolite cytidine; for dATP: metabolite dATP; for dGMP/AMP: metabolite dGMP/AMP; for fumarate: metabolite fumarate; for glucose-1/6-phosphate: metabolite glucose-1/6-phosphate; for glycerate: metabolite glycerate; for guanine: metabolite guanine; for guanosine: metabolite guanosine; for hypoxanthine: metabolite hypoxanthine; for indole: metabolite indole; for inosine: metabolite inosine; for 2_3-Diphosphoglyceric acid / 4-phosphopantothenate / 6-phospho-D-gluconate / FMN / IMP / Pyrophosphate / Sedoheptoluse bisphosphate / cyclic-AMP / glutathione disulfide / lactate / myo-inositol: metabolite level change after treatment; for nicotinate: metabolite nicotinate; for ornithine: metabolite ornithine; for phosphoenolpyruvate: metabolite phosphoenolpyruvate; for pyruvate: metabolite pyruvate; for ribose-phosphate: metabolite ribose-phosphate; for sarcosine/alanine: metabolite sarcosine/alanine; for sn-glycerol-3-phosphate: metabolite sn-glycerol-3-phosphate; for succinate/methylmalonic acid: metabolite succinate/methylmalonic acid; for uridine: metabolite uridine; for xanthosine: metabolite xanthosine
P. falciparum = experiment: EC50 listed in S2 Table Metabolomics (used to set the concentration tested); type: cell-based; conditions: Plasmodium falciparum; EC50 used for Factor_XEC50 in metabolomics; read-out: EC50_nM

Which Acetyllysine [1] does the source give for COc1ccc(NC(=O)C2c3ccccc3C(=O)N(CC(C)C)C2c2cccs2)cc1Cl (stereo not drawn) [MMV000642] here?
The Acetyllysine was -5.193.

What about the N-acetyl-L-ornithine [1] of the same molecule?
Its N-acetyl-L-ornithine is -3.747.

What about the N-carbamoyl-L-aspartate [1] of the same molecule?
The N-carbamoyl-L-aspartate was -2.41.

And the NADPH [1]?
The NADPH was -0.3813.

And the dAMP [1]?
The dAMP was 2.141.

And the dCMP [1]?
Its dCMP is 1.187.

And the dTDP [1]?
Its dTDP is 1.699.

What about the dTMP [1] of the same molecule?
Its dTMP is 3.58.

What about the dTTP [1] of the same molecule?
The dTTP was 1.5.

What about the dihydroorotate [1] of the same molecule?
Its dihydroorotate is -2.555.

What about the orotate [1] of the same molecule?
Its orotate is -0.348.

And the DLH [1]?
The DLH was -5.968.

And the DLS/SDL/SID [1]?
Its DLS/SDL/SID is -3.9977.

And the PD [1]?
The PD was -2.5956.

What about the PEE [1] of the same molecule?
The PEE was -3.5386.

What about the PVNF [1] of the same molecule?
Its PVNF is -6.505.

And the 3-phosphoglycerate [1]?
Its 3-phosphoglycerate is -0.2719.

And the ADP-D-glucose [1]?
The ADP-D-glucose was -0.1906.

And the ATP [1]?
Its ATP is -1.554.

What about the CDP [1] of the same molecule?
The CDP was -0.7723.

And the D-sedoheptulose-1/7-phosphate [1]?
Its D-sedoheptulose-1/7-phosphate is -1.211.

And the FAD [1]?
The FAD was -1.709.

What about the GMP [1] of the same molecule?
The GMP was -1.9066.

What about the “NAD+” value [1] of the same molecule?
The value was -0.5171.

And the “NADP+” value [1]?
Its value is -0.1638.

And the “Octoluse Bisphosphate” value [1]?
The value was -2.57.

And the Pyroglutamic acid [1]?
Its Pyroglutamic acid is 0.06474.

What about the UDP-D-glucose [1] of the same molecule?
Its UDP-D-glucose is -0.2074.

And the UDP-D-glucuronate [1]?
Its UDP-D-glucuronate is -0.1541.

And the UDP-N-acetyl-glucosamine [1]?
Its UDP-N-acetyl-glucosamine is -0.04904.

What about the UDP [1] of the same molecule?
Its UDP is -1.27.

What about the UMP [1] of the same molecule?
The UMP was -0.4497.

And the UTP [1]?
The UTP was -1.308.

And the a-ketoglutarate [1]?
Its a-ketoglutarate is -0.0007361.

And the citrate/isocitrate [1]?
The citrate/isocitrate was -0.3751.

What about the cytidine [1] of the same molecule?
The cytidine was 0.1777.

And the dATP [1]?
Its dATP is 0.01445.

What about the dGMP/AMP [1] of the same molecule?
The dGMP/AMP was -0.6011.

And the fumarate [1]?
Its fumarate is -0.3143.

And the glucose-1/6-phosphate [1]?
Its glucose-1/6-phosphate is -1.542.

What about the glycerate [1] of the same molecule?
Its glycerate is -0.9599.

What about the guanine [1] of the same molecule?
Its guanine is 0.2177.

And the guanosine [1]?
Its guanosine is 0.8357.

What about the hypoxanthine [1] of the same molecule?
Its hypoxanthine is -0.2894.

What about the indole [1] of the same molecule?
Its indole is -0.1989.

And the inosine [1]?
The inosine was 0.04742.

And the 2_3-Diphosphoglyceric acid [1]?
Its 2_3-Diphosphoglyceric acid is -1.07.

And the 4-phosphopantothenate [1]?
Its 4-phosphopantothenate is -0.7331.

What about the 6-phospho-D-gluconate [1] of the same molecule?
The 6-phospho-D-gluconate was -0.5035.

What about the FMN [1] of the same molecule?
The FMN was -0.2051.

What about the IMP [1] of the same molecule?
The IMP was -0.1621.

What about the Pyrophosphate [1] of the same molecule?
The Pyrophosphate was -1.141.

What about the Sedoheptoluse bisphosphate [1] of the same molecule?
The Sedoheptoluse bisphosphate was -1.388.

What about the cyclic-AMP [1] of the same molecule?
Its cyclic-AMP is -0.8649.

And the glutathione disulfide [1]?
Its glutathione disulfide is -0.7288.

What about the lactate [1] of the same molecule?
The lactate was -1.097.

What about the myo-inositol [1] of the same molecule?
The myo-inositol was -1.4412.

What about the nicotinate [1] of the same molecule?
Its nicotinate is 0.5786.

What about the ornithine [1] of the same molecule?
The ornithine was 0.1669.

And the phosphoenolpyruvate [1]?
Its phosphoenolpyruvate is 0.08762.

And the pyruvate [1]?
The pyruvate was -0.8949.

What about the ribose-phosphate [1] of the same molecule?
Its ribose-phosphate is -0.3617.

What about the sarcosine/alanine [1] of the same molecule?
Its sarcosine/alanine is -1.783.

What about the sn-glycerol-3-phosphate [1] of the same molecule?
Its sn-glycerol-3-phosphate is 1.156.

What about the succinate/methylmalonic acid [1] of the same molecule?
The succinate/methylmalonic acid was 0.05807.

What about the uridine [1] of the same molecule?
The uridine was 1.2.

And the xanthosine [1]?
Its xanthosine is -1.585.

And the EC50 (P. falciparum)?
Its EC50 is 20.2 nM.

O=C(CSc1nccn2nc(-c3ccccc3)cc12)Nc1cc(C(F)(F)F)ccc1Cl [MMV396678] was tested. Which Acetyllysine [1] did it give?
Its Acetyllysine is -0.4877.

And the N-acetyl-L-ornithine [1]?
The N-acetyl-L-ornithine was -0.4938.

What about the N-carbamoyl-L-aspartate [1] of the same molecule?
Its N-carbamoyl-L-aspartate is 3.602.

And the NADPH [1]?
Its NADPH is -0.3509.

What about the dAMP [1] of the same molecule?
The dAMP was -2.425.

And the dCMP [1]?
Its dCMP is -0.1067.

What about the dTDP [1] of the same molecule?
Its dTDP is -0.8621.

And the dTMP [1]?
Its dTMP is -0.7966.

And the dTTP [1]?
Its dTTP is -1.266.

What about the dihydroorotate [1] of the same molecule?
The dihydroorotate was 4.597.

And the orotate [1]?
The orotate was 0.259.

And the DLH [1]?
Its DLH is -0.3174.

And the DLS/SDL/SID [1]?
Its DLS/SDL/SID is -0.3424.

And the PD [1]?
Its PD is -0.07917.

And the PEE [1]?
Its PEE is -0.441.

What about the PVNF [1] of the same molecule?
Its PVNF is -2.237.

And the 3-phosphoglycerate [1]?
Its 3-phosphoglycerate is -0.1451.

What about the ADP-D-glucose [1] of the same molecule?
The ADP-D-glucose was -0.07756.

And the ATP [1]?
Its ATP is 0.1007.

And the CDP [1]?
The CDP was -0.7494.

What about the D-sedoheptulose-1/7-phosphate [1] of the same molecule?
Its D-sedoheptulose-1/7-phosphate is -0.4438.

And the FAD [1]?
The FAD was -0.03171.

And the GMP [1]?
The GMP was 0.3554.

What about the “NAD+” value [1] of the same molecule?
The value was 0.01671.

And the “NADP+” value [1]?
The value was -0.09002.

What about the “Octoluse Bisphosphate” value [1] of the same molecule?
Its value is -0.2508.

And the Pyroglutamic acid [1]?
Its Pyroglutamic acid is 0.3744.

What about the UDP-D-glucose [1] of the same molecule?
The UDP-D-glucose was -0.1169.

What about the UDP-D-glucuronate [1] of the same molecule?
Its UDP-D-glucuronate is -0.3093.

What about the UDP-N-acetyl-glucosamine [1] of the same molecule?
Its UDP-N-acetyl-glucosamine is -0.3205.

And the UDP [1]?
Its UDP is -0.9356.

What about the UMP [1] of the same molecule?
The UMP was -0.7589.

What about the UTP [1] of the same molecule?
Its UTP is -1.3566.

And the a-ketoglutarate [1]?
Its a-ketoglutarate is 0.2592.

And the citrate/isocitrate [1]?
The citrate/isocitrate was 0.4562.

And the cytidine [1]?
The cytidine was 0.4629.

What about the dATP [1] of the same molecule?
The dATP was 0.2611.

What about the dGMP/AMP [1] of the same molecule?
Its dGMP/AMP is -0.1351.

What about the fumarate [1] of the same molecule?
The fumarate was 0.07736.

And the glucose-1/6-phosphate [1]?
The glucose-1/6-phosphate was 0.1714.

What about the glycerate [1] of the same molecule?
The glycerate was 0.291.

What about the guanine [1] of the same molecule?
The guanine was 0.4817.

What about the guanosine [1] of the same molecule?
The guanosine was 0.7569.

And the hypoxanthine [1]?
Its hypoxanthine is 0.5204.

What about the indole [1] of the same molecule?
The indole was 0.3835.

What about the inosine [1] of the same molecule?
Its inosine is 0.4193.

And the 2_3-Diphosphoglyceric acid [1]?
Its 2_3-Diphosphoglyceric acid is -0.1645.

What about the 4-phosphopantothenate [1] of the same molecule?
Its 4-phosphopantothenate is -0.3586.

And the 6-phospho-D-gluconate [1]?
Its 6-phospho-D-gluconate is -0.1209.

What about the FMN [1] of the same molecule?
The FMN was -0.2869.

What about the IMP [1] of the same molecule?
Its IMP is 0.1606.

What about the Pyrophosphate [1] of the same molecule?
The Pyrophosphate was -0.1573.

And the Sedoheptoluse bisphosphate [1]?
The Sedoheptoluse bisphosphate was -0.2556.

What about the cyclic-AMP [1] of the same molecule?
Its cyclic-AMP is -0.1203.

And the glutathione disulfide [1]?
Its glutathione disulfide is -0.08653.

What about the lactate [1] of the same molecule?
The lactate was 0.1751.

What about the myo-inositol [1] of the same molecule?
Its myo-inositol is -0.2117.

What about the nicotinate [1] of the same molecule?
Its nicotinate is 0.4349.

What about the ornithine [1] of the same molecule?
The ornithine was 0.266.

What about the phosphoenolpyruvate [1] of the same molecule?
Its phosphoenolpyruvate is 0.01446.

What about the pyruvate [1] of the same molecule?
The pyruvate was 0.3754.

What about the ribose-phosphate [1] of the same molecule?
Its ribose-phosphate is -0.04013.

What about the sarcosine/alanine [1] of the same molecule?
The sarcosine/alanine was -0.09301.

What about the sn-glycerol-3-phosphate [1] of the same molecule?
The sn-glycerol-3-phosphate was -0.3771.

What about the succinate/methylmalonic acid [1] of the same molecule?
Its succinate/methylmalonic acid is 0.03069.

And the uridine [1]?
Its uridine is 0.1532.

And the xanthosine [1]?
Its xanthosine is 0.489.
